Values quoted from earlier work in patent US20090298802A1, “Pharmaceutical Compositions” (priority 2005, published 2009).

Legend:
patients with COPD = conditions: 516 patients with COPD, after 26 weeks of dosing, versus placebo recipients
guinea-pig model of COPD = conditions: COPD induced by cigarette smoke exposure

O=C(Nc1c(Cl)cncc1Cl)c1ccc(OC(F)F)c(OCC2CC2)c1 [Roflumilast]
tolerability profile (patients with COPD): equivalent to that seen in placebo recipients

CCOc1ccc(-c2nc(-c3cccc(C(=O)O)n3)cs2)cc1OCC [Tetomilast]
neutrophilia (guinea-pig model of COPD): improvements
specific airway resistance (guinea-pig model of COPD): improvements
